Here are results for five compounds from patent publication US20070191317A1, “VITAMIN D ANALOG - RAK, METHODS AND USES THEREOF” (WISCONSIN ALUMNI RESEARCH FOUNDATION, priority 2006, published 2007).

Test [1] deals with T1, vitamin D receptors (Homo sapiens, UniProt P11473).
T1 sequence (P11473 1-427): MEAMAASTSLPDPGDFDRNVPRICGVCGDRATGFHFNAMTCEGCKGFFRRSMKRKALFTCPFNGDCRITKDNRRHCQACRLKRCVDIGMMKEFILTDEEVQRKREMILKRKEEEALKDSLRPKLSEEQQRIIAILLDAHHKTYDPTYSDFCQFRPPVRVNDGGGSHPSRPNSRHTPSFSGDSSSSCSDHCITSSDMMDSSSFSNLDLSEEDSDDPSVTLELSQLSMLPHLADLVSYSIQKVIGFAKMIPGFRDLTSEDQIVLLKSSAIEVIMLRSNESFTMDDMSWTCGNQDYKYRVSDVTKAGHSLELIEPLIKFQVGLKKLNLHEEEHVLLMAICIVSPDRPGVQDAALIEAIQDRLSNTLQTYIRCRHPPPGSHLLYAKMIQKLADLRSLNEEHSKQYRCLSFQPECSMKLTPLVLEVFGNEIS
Particulars: cited from earlier work.

The conditions of test [2]: cited from earlier work; for calcemic activity: as compared to 1α,25-dihydroxyvitamin D3.
Test [3] is described as follows: Intestinal calcium transport (everted gut sac method). Format: in vivo, Sprague-Dawley rats. Particulars: rats, ip; at equimolar quantities of the dose of 1α,25-dihydroxyvitamin D3; FIG. 3. As for the experimental part:
FIG. 3 is a bar graph comparing the intestinal calcium transport activity of RAK with that of 1,25(OH)2D3.
(§1) Male, weanling Sprague-Dawley rats were placed on Diet 11 (0.47% Ca) diet+AEK for one week followed by Diet 11 (0.02% Ca)+AEK for 3 weeks. The rats were then switched to a diet containing 0.47% Ca for one week followed by two weeks on a diet containing 0.02% Ca. Dose administration began during the last week on 0.02% calcium diet. Four consecutive ip doses were given approximately 24 hours apart. Twenty-four hours after the last dose, blood was collected from the severed neck and the concentration of serum calcium determined as a measure of bone calcium mobilization. The first 10 cm of the intestine was also collected for intestinal calcium transport analysis using the everted gut sac method.

In test [4] the target is T2, full-length recombinant rat vitamin D receptor (Rattus norvegicus, UniProt P13053).
T2 construct: Full-length recombinant rat receptor was expressed in E. coli; histidine tag (C); made in house; host or cells: E. coli BL21(DE3) Codon Plus RIL
T2 sequence (P13053 1-423): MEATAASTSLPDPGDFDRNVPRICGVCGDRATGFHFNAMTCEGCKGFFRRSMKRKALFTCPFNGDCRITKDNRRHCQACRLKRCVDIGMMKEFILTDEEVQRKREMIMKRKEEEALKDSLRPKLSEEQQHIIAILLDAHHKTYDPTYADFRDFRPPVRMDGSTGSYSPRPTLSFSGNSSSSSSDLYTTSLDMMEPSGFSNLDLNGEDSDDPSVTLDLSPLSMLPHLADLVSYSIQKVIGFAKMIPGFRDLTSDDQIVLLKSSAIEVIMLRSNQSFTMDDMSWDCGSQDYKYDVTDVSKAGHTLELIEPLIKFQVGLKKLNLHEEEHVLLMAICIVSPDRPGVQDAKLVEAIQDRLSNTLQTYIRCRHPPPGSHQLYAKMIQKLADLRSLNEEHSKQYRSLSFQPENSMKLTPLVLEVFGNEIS
Nature of the test: Vitamin D receptor competitive binding with [3H]-1,25-(OH)2-D3. Particulars: relative to 1α,25-dihydroxyvitamin D3; FIG. 1. As for the experimental part:
The first system was a nickel affinity resin that utilizes the C-terminal histidine tag on this protein. The protein that was eluted from this resin was further purified using ion exchange chromatography (S-Sepharose Fast Flow). Aliquots of the purified protein were quick frozen in liquid nitrogen and stored at −80° C. until use. For use in binding assays, the protein was diluted in TEDK50 (50 mM Tris, 1.5 mM EDTA, pH7.4, 5 mM DTT, 150 mM KCl) with 0.1% Chaps detergent. The receptor protein and ligand concentration was optimized such that no more than 20% of the added radiolabeled ligand was bound to the receptor.
The following day, 100 mcl of hydroxylapatite slurry (50%) was added to each tube and mixed at 10-minute intervals for 30 minutes. The hydroxylapaptite was collected by centrifugation and then washed three times with Tris-EDTA buffer (50 mM Tris, 1.5 mM EDTA, pH 7.4) containing 0.5% Titron X-100. After the final wash, the pellets were transferred to scintillation vials containing 4 ml of Biosafe II scintillation cocktail, mixed and placed in a scintillation counter. Total binding was determined from the tubes containing only radiolabeled ligand.

Test [5] in a line: Bone calcium mobilization (serum calcium). The class given is in vivo, Sprague-Dawley rats. As to conditions: rats, ip, FIG. 2. As for the experimental part: FIG. 2 is a bar graph comparing the bone calcium mobilization activity of RAK with that of 1,25(OH)2D3.
as §1

Test [6] relates to 24-hdyroxylase (24Ohase) gene promoter. Nature of the test: In vitro transcription assay (luciferase reporter) in ROS 17/2.8 (bone) cells. As to conditions: Ros17/2.8 (bone) cells, relative to 1α,25-dihydroxyvitamin D3; FIG. 5. Format: cell-based. As for the experimental part:
FIG. 5 is a graph comparing the in vitro transcription activity of RAK with that of 1,25(OH)2D3.
Transcription activity was measured in ROS 17/2.8 (bone) cells that were stably transfected with a 24-hdyroxylase (24Ohase) gene promoter upstream of a luciferase reporter gene (Arbour et al., 1998). Cells were given a range of doses. Sixteen hours after dosing the cells were harvested and luciferase activities were measured using a luminometer. (RLU=relative luciferase units)
Background: In a reporter assay the amount or activity of a reporter protein is the signal.

In test [7] the test system is HL-60 cells. Nature of the test: HL-60 differentiation (nitro blue tetrazolium reduction). The class given is cell-based, human. Particulars: relative to 1α,25-dihydroxyvitamin D3; FIG. 4. As for the experimental part: FIG. 4 is a graph comparing the percent HL-60 cell differentiation as a function of the concentration of RAK with that of 1,25(OH)2D3.
The study drugs were dissolved in ethanol and the concentrations determined using UV spectrophotometry. Serial dilutions were prepared so that a range of drug concentrations could be tested without changing the final concentration of ethanol (<0.2%) present in the cell cultures.
Human promyelocytic leukemia (HL60) cells were grown in RPMI-1640 medium containing 10% fetal bovine serum. The cells were incubated at 37° C. in the presence of 5% CO2.
HL60 cells were plated at 1.2×10^5 cells/ml. Eighteen hours after plating, cells in duplicate were treated with drug. Four days later, the cells were harvested and a nitro blue tetrazolium reduction assay was performed (Collins et al., 1979; J. Exp. Med. 149:969-974). The percentage of differentiated cells was determined by counting a total of 200 cells and recording the number that contained intracellular black-blue formazan deposits. Verification of differentiation to monocytic cells was determined by measuring phagocytic activity (data not shown).

“Also recorded” adds a separate entry of the source.

As for “1α-hydroxy-2-methylene-19-nor-(20S)-homopregnacalciferol”, the “binding activity to vitamin D receptors” value in test [1] is recorded as “relatively high binding activity”. The calcemic activity entry in test [2] is given as “little if any calcemic activity”.

In the case of “1α-hydroxy-2-methylene-19-nor-bishomopregnacalciferol”, the “binding activity to vitamin D receptors” value in test [1] was “relatively high binding activity”. In addition, the calcemic activity result in test [2] was “little if any calcemic activity”.

In the case of `C[C@H](CCCC(C)(C)O)[C@H]1CC[C@H]2/C(=C/C=C3C[C@@H](O)C[C@H](O)C3)CCC[C@]12C` [1α,25-dihydroxy-19-nor-vitamin D3], the calcium mobilizing activity result in test [2] (in vivo) was “very low”.

For the compound `C=C1[C@H](O)CC(=C/C=C2\CCC[C@]3(C)[C@@H](CC)CC[C@@H]23)C[C@H]1O` [1α-hydroxy-2-methylene-19-nor-pregnacalciferol], the “binding activity to vitamin D receptors” value in test [1] is reported as “relatively high binding activity”. In test [2], the calcemic activity result is reported as “little if any calcemic activity”.

On to `C=C1[C@H](O)CC(=C/C=C2\CCC[C@]3(C)[C@@H]([C@H](C)CCCC(C)O)CC[C@@H]23)C[C@H]1O` (stereo partly drawn) [RAK, (20R,25R)-2-Methylene-19,26-dinor-1α,25-dihydroxyvitamin D3], for which the “calcemic activity measured by intestinal calcium transport” value in test [3] was “limited calcemic activity; also recorded: very low intestinal calcium transport activity”. Moreover, the “binding to the recombinant vitamin D receptor” value in test [4] was “comparable to 1α,25-dihydroxyvitamin D3; also recorded: relatively high binding”. The figures for the “calcemic activity measured by bone calcium mobilization” value in test [5] (at 27 time molar quantity of the dose of 1α,25-dihydroxyvitamin D3) and in test [5] (at equimolar quantities of the dose of 1α,25-dihydroxyvitamin D3) were “limited calcemic activity” and “limited calcemic activity; also recorded: very low ability to mobilize calcium from bone”, respectively. Further, the “stimulating transcription of a reporter gene” value in test [6] is reported as “equally active”. Moreover, the “inducing differentiation of HL-60 cells” value in test [7] was “equally active as 1α,25-dihydroxyvitamin D3”.
